Our source for the absorption maximum values is the Deep4Chem optical property database.

This series is described as follows: solvent given as SMILES.

`N#CC1=CC(C#Cc2ccccc2)=CC(C#N)=P1(c1ccccc1)c1ccccc1` yielded an absorption maximum (in ClC(Cl)Cl) of 489 nm.
On to `CCCCN1C(=O)C(=C/C=C/C=C2N(CCCC)c3ccccc3N2CCCC)C(=O)N(CCCC)C1=S`, for which the absorption maximum reads like this: (in CCCCCC) 574 nm; (in CCO) 452 nm; (in CN(C)C=O) 497 nm; (in Cc1ccccc1) 575 nm; (in ClC(Cl)Cl) 559 nm; (in ClCCl) 550 nm.
On to `CC(C)c1cc(C(C)C)c(B2c3cc(-n4c5ccccc5c5ccccc54)ccc3N(c3ccccc3)c3ccc(-n4c5ccccc5c5ccccc54)cc32)c(C(C)C)c1`, for which, for the setting “in C1CCCCC1”, the absorption maximum was 400 nm.
Regarding `CCCCn1c(-c2ccc(-c3nnc(-c4ccc5ccccc5c4)o3)cc2)nc(-c2ccccc2)c1-c1ccccc1`, the absorption maximum (in ClCCl) was 340 nm.
On to `Cc1nc2c(cc3c4c(cccc42)C(=O)OC3=O)o1`, for which the absorption maximum (in CCO) is given as 360 nm.
Take `CCCCN(CCCC)c1ccc2c(c1)C#CC#Cc1cc(C(F)(F)F)ccc1C#Cc1cc(c3cc1C#Cc1ccc(N(CCCC)CCCC)cc1C#CC#Cc1cc(C(F)(F)F)ccc1C#C3)C#C2`: where the note is “in ClCCl”, the absorption maximum came to 477 nm.
Regarding `CC(C)(C)c1ccc2ccc3cccc4ccc1c2c34`, the absorption maximum stood at 338 nm (in CCCCCC), 338 nm (in CO) and 341 nm (in ClCCl).
For `Cc1ccc(-c2cccc3ncc(-c4ccccc4)n23)cc1`, where the note is “in ClCCl”, the absorption maximum stood at 341 nm.
`Cc1cc(O)c(C(=O)/C=C/c2ccccc2)c(=O)o1`: the absorption maximum is reported as 356 nm (in CC#N) and 358 nm (in ClCCl).
On to `O=P1(c2ccccc2)C2=C(c3ccccc31)[Si](c1ccccc1)(c1ccccc1)c1cc(N(c3ccccc3)c3ccccc3)ccc12` (centres undefined), for which the absorption maximum (in CC#N) stood at 456 nm, the absorption maximum (in CO) was determined as 466 nm and the absorption maximum (in Cc1ccccc1) is given as 459 nm.
On to `c1ccc(-c2nc3nc4ccccc4nc3n2-c2ccccc2)cc1`, for which the absorption maximum (in CC#N) was determined as 348 nm.
`COc1ccc2cc(-c3ccc([N+](=O)[O-])cc3)ccc2c1`: the absorption maximum runs as follows: (in C1CCOC1) 344 nm; (in CC#N) 341 nm; (in ClC(Cl)Cl) 346 nm; (in ClCCl) 345 nm.
For `CCOC(=O)CN(CC(=O)OCC)c1ccc(-c2cc(-c3ccccn3)nc(-c3ccccn3)c2)cc1`, the absorption maximum was determined as 328 nm (in CC#N); 328 nm (in CCOC(C)=O); 332 nm (in CN(C)C=O); 336 nm (in CS(C)=O); 328 nm (in c1ccccc1).
For the compound `Clc1nc(Cl)nc(Nc2ccc3cc4ccccc4cc3c2)n1`, the absorption maximum came out at 396 nm (in C1COCCO1), 398 nm (in CC#N), 395 nm (in CCCCOCCCC) and 394 nm (in CCOC(C)=O).
Regarding `N#Cc1ccc(-n2c(-c3ccc(-c4ccc(-c5nc6c7ccccc7c7ccccc7c6n5-c5ccc(C#N)c6ccccc56)c5ccccc45)c4ccccc34)nc3c4ccccc4c4ccccc4c32)c2ccccc12`, for the setting “in ClCCl”, the absorption maximum was found to be 336 nm.
`CC(=O)OCCN1C(=O)c2cccc3c(Oc4ccccc4C)ccc(c23)C1=O` came in with an absorption maximum (in ClC(Cl)Cl) of 352 nm.
In turn, `c1ccc2c(c1)ccc1c3ccccc3ccc21` displayed an absorption maximum (in ClCCl) of 322 nm.
As for `c1ccc2cc(-n3c4ccccc4c4ccccc43)ccc2c1`, the absorption maximum was found to be 318 nm (in C1CCCCC1); 320 nm (in C1CCOC1); 321 nm (in CC#N); 320 nm (in CCO); 318 nm (in CCOC(C)=O); 319 nm (in CCOCC). Further, the absorption maximum runs as follows: (in CO) 319 nm; (in Cc1ccccc1) 319 nm; (in ClC(Cl)Cl) 321 nm.
Compound `CC1(C)c2ccccc2-c2cc3c4ccccc4n(-c4ccc(-c5nc(-c6ccccc6)nc(-c6ccccc6)n5)cc4)c3cc21` displayed an absorption maximum (in Cc1ccccc1) of 362 nm.
Consider `Cc1cc(C)c(B(c2c(C)cc(C)cc2C)c2cc3ccc4ccccc4c3c3c2ccc2ccccc23)c(C)c1`, for which the absorption maximum (in C1CCCCC1) is 413 nm; the absorption maximum (in C1CCOC1) was 413 nm; the absorption maximum (in CC#N) worked out at 410 nm; the absorption maximum (in ClC(Cl)Cl) was 413 nm; the absorption maximum (in c1ccccc1) amounted to 415 nm.
`Cc1ccc(C2CC(c3ccc(O)cc3)=NN2c2ccc(S(N)(=O)=O)cc2)cc1` (centres undefined) displayed an absorption maximum (in C1CCOC1) of 359 nm; an absorption maximum (in C1COCCO1) of 360 nm; an absorption maximum (in CC#N) of 358 nm; an absorption maximum (in CC(C)O) of 358 nm; an absorption maximum (in CCO) of 358 nm; an absorption maximum (in CCOC(C)=O) of 358 nm. Also, the absorption maximum is, setting by setting: (in CN(C)C=O) 362 nm; (in CO) 357 nm; (in CS(C)=O) 364 nm; (in O) 360 nm.
Regarding `F[B-]1(F)n2cccc2C(c2ccccc2)=C2C=CC(N3CCOCC3)=[N+]21`, the absorption maximum runs as follows: (in CC#N) 473 nm; (in CCCCCC) 514 nm; (in CCOC(C)=O) 480 nm; (in CO) 479 nm; (in ClCCl) 486 nm.
`CCOCCOCCOC(=O)/C=C/C1=CC2=C(c3c(C)cc(C)cc3C)c3cccn3[B-](F)(F)[N+]2=C1` displayed an absorption maximum (in ClCCl) of 536 nm.
`O=C1Nc2ccccc2/C1=C/C(=O)c1ccc(O)cc1`: the absorption maximum was determined as 333 nm (in C1CCCCC1); 334 nm (in C1COCCO1); 332 nm (in CC#N); 336 nm (in CC(C)(C)O); 338 nm (in CC(C)O); 331 nm (in CCCCCC). For the same compound, the absorption maximum (in CCCCO) came out at 337 nm; the absorption maximum (in CCOC(C)=O) was found to be 334 nm; the absorption maximum (in CN(C)C=O) worked out at 337 nm; the absorption maximum (in CO) amounted to 336 nm; the absorption maximum (in ClCCl) is listed as 336 nm; the absorption maximum (in O) is on record as 338 nm.
For the compound `Nc1ccc2c(-c3ccccc3C(=O)[O-])c3ccc(=[NH2+])cc-3oc2c1`, the absorption maximum reads like this: (in CC#N) 500 nm; (in CCO) 499 nm; (in CN(C)C=O) 515 nm; (in O) 497 nm.
Turning to `N#C/C(=C\c1ccncc1)c1nc(-c2ccc(Cl)cc2)cs1`, under “in CC#N”, the absorption maximum was 357 nm.
In turn, `CCC1(CC)c2ccccc2-c2c1c1c(c3c2C(CC)(CC)c2cc(/C=C/c4cccs4)ccc2-3)C(CC)(CC)c2cc(/C=C/c3cccs3)ccc2-1` showed an absorption maximum (in C1CCOC1) of 382 nm.
In the case of `CCC1=C(C2=C(C3=C(CC)S(=O)(=O)c4cc(-c5ccccc5)ccc43)C(F)(F)C(F)(F)C2(F)F)c2ccc(-c3ccccc3)cc2S1(=O)=O`, the absorption maximum (in C1COCCO1) was 336 nm.
`CN(C)c1ccc(C#Cc2ncnc3ccccc23)cc1` showed an absorption maximum (in ClCCl) of 384 nm.
For `COC(=O)c1cc(/N=N/c2cc3c4c(c2)CCCN4CCC3)cc(C(=O)OC)c1`, the absorption maximum (in CCOC(C)=O) is listed as 471 nm.
`Clc1ccccc1-c1nc2sc3ccccc3c2s1`: the absorption maximum (in CS(C)=O) is reported as 347 nm.
Take `CN(C)c1ccc(-c2cc(-c3cccs3)nc(-c3ccccc3)n2)cc1`: the absorption maximum (in ClC(Cl)Cl) turned out to be 371 nm.
As for `Nc1ccc(/C=C/c2ccccc2)cc1`, the absorption maximum was found to be 318 nm (in CC#N) and 316 nm (in CCCCCC).
In the case of `COc1cc(OC)cc(C(=O)OCc2c(C)c(=O)n3c(=O)c(C)c(C)n23)c1`, under “in CCO”, the absorption maximum is given as 378 nm.
With `O=c1ccc2cc3ccoc3cc2o1`, the absorption maximum by setting is: (in CC(C)O) 298 nm; (in CCO) 299 nm; (in CCOCC) 294 nm; (in CO) 300 nm; (in O) 303 nm.
On to `COc1ccc(C2=Cc3ccccc3[Si]2(c2ccccc2)c2ccccc2)cc1`, for which the absorption maximum (in ClCCl) came out at 350 nm.
Turning to `O=C1c2cccc3cc4ccccc4c(c23)C(=O)N1Cc1ccccn1`, the absorption maximum (in C1CCOC1) turned out to be 432 nm; the absorption maximum (in CCCCCC) is recorded as 427 nm; the absorption maximum (in CCO) stood at 436 nm; the absorption maximum (in Cc1ccccc1) was found to be 435 nm; the absorption maximum (in ClCCl) stood at 437 nm.
With `F[B-]1(F)OC(c2ccc(C(F)(F)F)cc2)=Cc2cc(Cl)nc[n+]21`, the absorption maximum was found to be 371 nm (in C1CCOC1); 368 nm (in CC#N); 370 nm (in CCCCCC); 374 nm (in Cc1ccccc1); 372 nm (in ClC(Cl)Cl); 372 nm (in ClCCl).
Consider `CC(C)(C)Nc1cc(F)c(C(=O)c2cc(F)c(NC(C)(C)C)cc2F)cc1F`, for which, for the setting “in CCO”, the absorption maximum stood at 348 nm.
Regarding `CCCCCCCCCCCCCCCCn1c(-c2cc(-c3nc4ccccc4n3CCCCCCCCCCCCCCCC)cc(-c3nc4ccccc4n3CCCCCCCCCCCCCCCC)c2)nc2ccccc21`, the absorption maximum (in ClCCl) amounted to 301 nm.
`CCn1c(-c2ccc(-c3ccc(-c4ccc(-c5n(CC)c6ccccc6[n+]5CC)cc4)c(C)c3)cc2)[n+](CC)c2ccccc21`: the absorption maximum (in O) came out at 290 nm.
`CCCCCCC(CCCCCC)N1C(=O)c2cccc3c(-c4ccc(OC)c5ccccc45)ccc(c23)C1=O` showed an absorption maximum (in CCCCCC) of 322.6 nm; an absorption maximum (in CCCCCCCCCCCCCC) of 322.6 nm; an absorption maximum (in CCCCCCCCCCCO) of 323.8 nm; an absorption maximum (in CCCCO) of 323.6 nm; an absorption maximum (in CN(C)C=O) of 323.8 nm; an absorption maximum (in Cc1ccccc1) of 324 nm. Also, for the setting “in ClC(Cl)Cl”, the absorption maximum is 325 nm.
`CCOc1cccc2c1O[B-](F)(F)[n+]1c3c(c4c(c1-2)-c1ccccc1CC4)-c1ccccc1CC3` returned an absorption maximum (in ClCCl) of 343 nm.
Take `CC1=CC(/C=C/c2ccc(OCCCN=[N+]=[N-])cc2)=[N+]2C1=C(c1ccccc1)c1c(C)cc(C)n1[B-]2(F)F`: the absorption maximum (in CO) amounted to 564 nm.
Under “in ClCCl”, `CC(C)(C)c1ccc(-c2ccc3c(-c4ccc(C(C)(C)C)c5ccccc45)cc4c5cc(-c6ccc(C(C)(C)C)c7ccccc67)ccc5c(-c5ccc(C(C)(C)C)c6ccccc56)cc4c3c2)c2ccccc12` registered an absorption maximum of 300 nm.
